Reference: BindingDB's records for patent US20250304537 (Repare Therapeutics, 2025)

Target: T1, Membrane-associated tyrosine- and threonine-specific cdc2-inhibitory kinase (Homo sapiens, UniProt Q99640)
T1 sequence (Q99640 whole entry): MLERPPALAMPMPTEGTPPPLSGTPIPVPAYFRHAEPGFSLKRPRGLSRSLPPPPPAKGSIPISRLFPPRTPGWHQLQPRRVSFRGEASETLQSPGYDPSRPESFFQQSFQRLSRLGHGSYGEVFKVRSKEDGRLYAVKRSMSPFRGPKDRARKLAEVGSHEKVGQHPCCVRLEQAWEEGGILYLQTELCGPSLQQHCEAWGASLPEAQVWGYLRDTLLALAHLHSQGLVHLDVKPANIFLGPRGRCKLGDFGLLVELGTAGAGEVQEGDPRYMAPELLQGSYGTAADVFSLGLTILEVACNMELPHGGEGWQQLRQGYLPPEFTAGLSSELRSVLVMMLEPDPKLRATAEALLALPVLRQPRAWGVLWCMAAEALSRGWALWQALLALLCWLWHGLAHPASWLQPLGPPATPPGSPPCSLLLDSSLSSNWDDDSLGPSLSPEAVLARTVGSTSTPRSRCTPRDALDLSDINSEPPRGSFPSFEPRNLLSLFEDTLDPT
Test: Enzymatic Assay
Protocol: Detection of Myt1 kinase activity utilized a recombinant human Myt1 kinase assay measuring the hydrolysis of ATP using a commercially available ADP-Glo Assay (ADP-Glo™ Kinase Assay from Promega, 10 000 assays, #V9102). Briefly, 5 μL recombinant human Myt1 (full length PKMYT1 recombinant human protein expressed in insect cells from Thermo Fisher #A33387; ˜80% purity) was prepared in reaction buffer (70 mM HEPES, 3 mM MgCl2, 3 mM MnCl2, 50 μg/ml PEG 20000, 3 μM Na-orthovanadate, 1.2 mM DTT) and added to 384 well white polystyrene, flat bottom well, non-treated, microplate (Corning #3572). After this, 5 μL of compounds (diluted in reaction buffer to 0.5% DMSO) was added to the microplate and the plate was spun briefly and incubated at 22° C. for 15 minutes. Ultra-Pure Adenosine Triphosphate (ATP) solution (ADP-Glo kit from Promega) was diluted in reaction buffer and 5 μL was added to the microplate, spun down briefly and incubated for 60 minutes at 30° C. The final Myt1 enzyme concentration was 18 nM and the final ATP concentration was 10 μM. After the 60-minute incubation, 15 μL of ADP-Glo reagent was added and the plate was spun briefly and sealed and incubated in the dark for 40 minutes at 22° C. Following this, 30 μL of kinase detection reagent was added per well and the plate was spun briefly, sealed and incubated for 45-60 minutes at 22° C. in the dark. Luminescence was read using the Envision (250 ms integration). The IC50 and the % max inhibition were calculated for each inhibitor compound tested.

| Compound | IC50 [nM] |
| --- | --- |
| NC(=O)c1nc(-c2ccnnc2)cc(-c2cccc3[nH]ncc23)c1N [US20250304537, Compound 69] | 131 |
| Cc1ccc2[nH]ncc2c1-c1cc(-c2ccnc(OCC(F)(F)F)n2)nc(C(N)=O)c1N [US20250304537, Compound 165] | 586 |
| Cc1ccc2[nH]ncc2c1-c1nc(-c2ccnnc2)cc(C(N)=O)c1N [US20250304537, Compound 120] | 329 |
| Cc1ccc2[nH]ncc2c1-c1nc(-c2cccnc2O)nc(C(N)=O)c1N [US20250304537, Compound 598] | 27 |
| Cc1ccc2[nH]ncc2c1-c1cc(-c2cccc(-c3ccccn3)n2)nc(C(N)=O)c1N [US20250304537, Compound 236] | 46 |
| Cc1ccc(O)cc1-c1nc(C2CCOCC2)nc(C(N)=O)c1N [US20250304537, Compound 44] | 3180 |
| Cc1ccc2[nH]ncc2c1-c1cc(-c2ccnc(OCc3ccco3)n2)nc(C(N)=O)c1N [US20250304537, Compound 213] | 7 |
| Cc1ccc2[nH]ncc2c1-c1nc(-c2ccc(N3CCN(C)CC3)cc2)nc(C(N)=O)c1N [US20250304537, Compound 134] | 142 |

Results, then the compound that gave them:

| IC50 [nM] | Compound |
| --- | --- |
| 22 | COc1cc(-c2nc(C(N)=O)c(N)c(-c3c(C)ccc4[nH]ncc34)n2)ccn1 [US20250304537, Compound 135] |
| 10 | Cc1ccc2[nH]ncc2c1-c1cc(-c2ccnc(OCC3(C#N)CC3)n2)nc(C(N)=O)c1N [US20250304537, Compound 324] |
| 66 | Cc1ccc2[nH]ncc2c1-c1nc(-c2ccc3[nH]ncc3c2)nc(C(N)=O)c1N [US20250304537, Compound 130] |
| 39 | Cc1ccc2[nH]ncc2c1-c1nc(-c2ccc(C#N)cc2)nc(C(N)=O)c1N [US20250304537, Compound 133] |
| 15 | Cc1ccc2[nH]ncc2c1-c1cc(-c2ccnc(N[C@H]3CCOC[C@@H]3O)n2)nc(C(N)=O)c1N [US20250304537, Compound 368] |
| > 2000 | CCc1ccc2[nH]ncc2c1-c1nc(-c2cccnc2)nc(C(N)=O)c1N [US20250304537, Compound 222] |
| 37 | Cc1ccc2[nH]ncc2c1-c1nc(-c2cccc(N3CCN(C)CC3)c2)nc(C(N)=O)c1N [US20250304537, Compound 132] |
| 4 | Cc1ccc2[nH]ncc2c1-c1cc(-c2ccnc(OCc3nccn3C)n2)nc(C(N)=O)c1N [US20250304537, Compound 301] |
| 27 | Cc1ccc(O)c(C)c1-c1nc(-c2ccnnc2)cc(C(N)=O)c1N [US20250304537, Compound 77] |
| 25 | Cc1cc(-c2nc(C(N)=O)c(N)c(-c3c(C)ccc4[nH]ncc34)n2)ccn1 [US20250304537, Compound 136] |
| 7 | CC(=O)N1CCN(c2nccc(-c3cc(-c4c(C)ccc5[nH]ncc45)c(N)c(C(N)=O)n3)n2)CC1 [US20250304537, Compound 215] |
